Patent publication EP0074307A1, “Mixed bromo-iodo benzene compounds and contrast products containing them” (Société dite: GUERBET S.A., priority 1981, dated 1983)

Assays:
complément = experiment: Complement activation (hemolytic concentration 50, CH 50); assay type: biochemical; parameters: unit not given here; settings: higher CH 50 = less complement activation, better tolerance
Text: Les travaux d'Elliott C. Lasser (Investig. Radiol., 1974, 9, 4 6A) ont montré que les produits de contraste activent le complément, qui est un ensemble de protéines sériques dont l'activation peut conduire à des réactions anaphylactiques graves.
La mesure de cette activation est effectuée par la détermination de la concentration hémolytique 50 désignée CH 50. On estime que les produits moins activateurs du complément, c'est-à-dire ayant une CH 50 plus élevée , provoquent moins d'effets secondaires de type anaphylactiques et présentent donc une meilleure tolérance.

[1] = X-ray opacity measured via film densitometry, relative to Hexabrix; assay type: physicochemical; settings: aqueous solutions of methylglucamine salts, same number of moles as Hexabrix (32 % iodine), X-ray source 70 kV
Text: L'opacité a été mesurée indirectement à l'aide de l'impression produite sur un film photographique par un faisceau de rayons X traversant une cuve contenant une solution aqueuse des composés. La transparence du film après développement a été mesurée à l'aide d'un densi- tomètre optique. Dans chaque cas, la mesure a été effectuée sur le même film et avec la même source de rayons X (70 kV) par comparaison avec un produit opacifiant servant de référence.
Comme produit de référence, on a utilisé l'Hexa- brix qui est une solution de sels de sodium et de méthyl- glucamine de l'acide ioxaglique à 32 % en iode.
Les composés selon l'invention ont été testés sous forme de solutions aqueuses de leurs sels de méthyl- glucamine contenant le même nombre de moles de composés que l'Hexabrix.

Row | Compound | CH 50 (complément) | Opacité relative/Hexabrix [1]
1 | CNC(=O)c1c(I)c(NC(=O)CNC(=O)c2c(I)cc(I)c(N(C)C(C)=O)c2I)c(I)c(C(=O)O)c1I [Analogue complètement iodé du composé 5, reference compound] | 3,8 | 
2 | CNC(=O)c1c(Br)c(C(=O)NCC(=O)Nc2c(I)c(C(=O)O)c(I)c(C(=O)NCCO)c2I)c(Br)c(N(C)C(C)=O)c1Br [Composé 2, acide triiodo-2,4,6 N-hydroxyéthylcarbamoyl-3 (tribromo-2,4,6 N-méthylcarbamoyl-3 N-méthyl N-acétylamino-5 benzoyl) glycylamino-5 benzoïque] | 20,8 | 0,92
3 | CNC(=O)c1c(I)c(C(=O)NCC(=O)Nc2c(Br)c(C(=O)O)c(Br)c(C(=O)NCCO)c2Br)c(I)c(N(C)C(C)=O)c1I [compound 1, acide tribromo-2,4,6 N-hydroxyéthylcarbamoyl-3 (triiodo-2,4,6 N-méthylcarbamoyl-3 N-méthyl N-acétylamino-5 benzoyl) glycylamino-5 benzoique] | 20,2 | 0,91
4 | CNC(=O)c1c(I)c(NC(=O)CNC(=O)c2c(Br)cc(Br)c(N(C)C(C)=O)c2Br)c(I)c(C(=O)O)c1I [compound 5] | 7,4 | 0,92
5 | CNC(=O)c1c(I)c(C(=O)NCC(=O)Nc2c(Br)cc(Br)c(C(=O)O)c2Br)c(I)c(N(C)C(C)=O)c1I [compound 7] | 10,0 | 
6 | CNC(=O)c1c(Br)c(C(=O)NCC(=O)Nc2c(I)cc(I)c(C(=O)O)c2I)c(Br)c(N(C)C(C)=O)c1Br [compound 8] | 11,5 | 
7 | CNC(=O)c1c(Br)c(C(=O)NCCC(=O)Nc2c(I)cc(I)c(C(=O)O)c2I)c(Br)c(N(C)C(C)=O)c1Br [compound 12] | 11,0 | 
8 | CNC(=O)c1c(Br)c(C(=O)NCCCC(=O)Nc2c(I)c(C(=O)O)c(I)c(C(=O)NCCO)c2I)c(Br)c(N(C)C(C)=O)c1Br [compound 13] | 15,3 | 
